According to ChEMBL document CHEMBL4699652, “Proline Hinged Amphipathic α-Helical Peptide Sensitizes Gram-Negative Bacteria to Various Gram-Positive Antibiotics” (J Med Chem, 2020):
Activity calls are given as the source filed them. The calls are words filed in the database; no cut-off is given here.

Columns and labels:
Lipopolysaccharide (LPS) [1] = test: Binding affinity to O-antigen-deficient Escherichia coli LPS in POPE/POPG lipid layers containing O-antigen-deficient LPS by SPR assay
Escherichia coli [2] = test: Binding affinity to cell membrane using POPC/cholesterol (8/2) by SPR assay
[3] = Induction of cell membrane permeability in POPE/POPG assessed as calcein leakage at 2 to 8 uM; conditions: dose microM 2-8
Lipopolysaccharide (LPS) [4] = test: Binding affinity to LPS in Escherichia coli D21e7 assessed as localization in membrane regions at 1 uM using TAMRA-labeled compound by confocal fluorescence microscopy
[5] = Drug localization in membrane of Escherichia coli at 1 uM incubated for 4 hrs using TAMRA-labeled compound; assay type: ADME, cell membranes, Cell membrane
Lipopolysaccharide (LPS) [6] = test: Binding affinity to LPS in Escherichia coli D21f2 assessed as localization in membrane regions at 1 uM using TAMRA-labeled compound by confocal fluorescence microscopy
Cell membrane = test: Induction of membrane permeability in Escherichia coli assessed as increase in fine surface roughness at 25 uM by atomic force microscopy; assay type: subcellular
Escherichia coli [7] = test: Sensitization of rifampicin-induced antimicrobial activity against Escherichia coli ATCC 25922 infected in ICR CD1 mouse model of sepsis protection model assessed as mouse survival at 30 mg/kg, ip q1h x 8 hrs for 1 days co-treated with 5 mg/kg, sc q4h x 8 hrs rifampicin; assay type: functional; conditions: ATCC 25922, 24 h, time 1 day
Staphylococcus aureus = test: Sensitization of rifampicin-induced antimicrobial activity against methicillin-resistant Staphylococcus aureus assessed as inhibition of bacterial growth at 8 ug/ml incubated for 18 hrs by CLSI based method; assay type: functional, organism-based; conditions: dose 8.0 µg/ml
Lipopolysaccharide (LPS) [8] = test: Binding affinity to LPS in Escherichia coli D21e19 assessed as localization in membrane regions at 1 uM using TAMRA-labeled compound by confocal fluorescence microscopy
Escherichia coli [9] = test: Sensitization of linezolid-induced antimicrobial activity against Escherichia coli ATCC 25922 infected in ICR CD1 mouse model of sepsis protection model assessed as increase in mouse survival at 30 mg/kg, ip q1h x 8 hrs for 7 days co-treated with 25 mg/kg, sc q4h x 8 hrs linezolid; assay type: functional, organism-based; conditions: time 7.0 day
Acinetobacter baumannii = test: Sensitization of clarithromycin-induced antimicrobial activity against Acinetobacter baumannii OXA infected in mouse skin infection model assessed as reduction in skin ulcer at 7.5 mg/kg, sc TID for 5 days co-treated with 20 ug/kg, sc clarithromycin; assay type: functional, organism-based; conditions: time 5.0 day
[10] = Drug uptake in human HeLa cells at 1 uM incubated for 4 hrs using TAMRA-labeled compound; assay type: ADME, cell-based

Ac-KLLKLLKKPLKLLK-NH2
Activity (Lipopolysaccharide (LPS) [1]): Active | Activity (Escherichia coli [2]): inactive | Activity [3]: inactive | Activity (Lipopolysaccharide (LPS) [4]): Active | Drug uptake [5]: Active | Activity (Lipopolysaccharide (LPS) [6]): Active | Activity (Cell membrane): Active | survival at 30 mg/kg (Escherichia coli [7]): 90% | Activity (Staphylococcus aureus): Active | Activity (Lipopolysaccharide (LPS) [8]): Active | Activity (Escherichia coli [9]): Active | Activity (Acinetobacter baumannii): Active | Drug uptake [10]: Not Active
